Marks after values point to notes of the source that are not given here.
Experiments:
Male Sprague-Dawley Rats = assay: In vivo Complete Freund's Adjuvant (CFA) efficacy assay, inhibition of allodynia; design: species or system rat; key: (+) indicates the test compound was determined to be efficacious at 3 mpk, oral dosing; (−) indicates the test compound was determined to not be efficacious at 3 mpk, oral dosing; settings: p < 0.05 vs vehicle group
Protocol: For additional information on the CFA efficacy assay, see Jayamanne et al., Brit. J. Pharmacol. 2006, 147, 281-288. Experiments were performed on adult Male Sprague-Dawley Rats (200 g-250 g). Inflammation was induced in the left hindpaw of the rat by an intra-plantar injection of 150 uL Complete Freund's Adjuvant (CFA) (SIGMA F5881). The CFA injection immediately induces local inflammation, paw swelling, and pain that persists for at least two weeks post-injection. Baseline paw withdrawal threshold (PWT) was measured to determine the percent inhibition of allodynia using a set of Von Frey Hairs on day 4 post injection as illustrated by the Dixon Up and Down Method (W. J. Dixon, Ann. Rev. Pharmacol. Toxicol. 1980, 20:441-462). […] Following Dose administration PWT threshold was evaluated again at four hours postdose. The Sprague-Dawley rats used in this assay were purchased from Harlan, 8520 Allison Pointe Blvd., Indianapolis, Ind., 46250, U.S.A. Sprague-Dawley rats are an outbred breed of albino rats first produced by the Sprague Dawley farms in Madison, Wis., U.S.A.
Percent Inhibition of Allodynia was determined by the formula: […]
ΔPWT measurements were averaged for each treatment group and statistical comparisons between groups were made using ANOVA and Dunnett's two-tailed test. […]

human FAAH = biological target: T1, human FAAH (Homo sapiens, UniProt O00519); assay: FAAH assay, human FAAH enzyme inactivation (kinact/Ki); type: biochemical; settings: oleamide 50 μM, 30° C.; for kinact/KI: pH 7.4, in vitro, read-out: hFAAH kinact/Ki; for hFAAH kinact/Ki: in vitro, pH 7.4
T1 construct: made in house; host or cells: E. coli
T1 sequence (O00519 1-579): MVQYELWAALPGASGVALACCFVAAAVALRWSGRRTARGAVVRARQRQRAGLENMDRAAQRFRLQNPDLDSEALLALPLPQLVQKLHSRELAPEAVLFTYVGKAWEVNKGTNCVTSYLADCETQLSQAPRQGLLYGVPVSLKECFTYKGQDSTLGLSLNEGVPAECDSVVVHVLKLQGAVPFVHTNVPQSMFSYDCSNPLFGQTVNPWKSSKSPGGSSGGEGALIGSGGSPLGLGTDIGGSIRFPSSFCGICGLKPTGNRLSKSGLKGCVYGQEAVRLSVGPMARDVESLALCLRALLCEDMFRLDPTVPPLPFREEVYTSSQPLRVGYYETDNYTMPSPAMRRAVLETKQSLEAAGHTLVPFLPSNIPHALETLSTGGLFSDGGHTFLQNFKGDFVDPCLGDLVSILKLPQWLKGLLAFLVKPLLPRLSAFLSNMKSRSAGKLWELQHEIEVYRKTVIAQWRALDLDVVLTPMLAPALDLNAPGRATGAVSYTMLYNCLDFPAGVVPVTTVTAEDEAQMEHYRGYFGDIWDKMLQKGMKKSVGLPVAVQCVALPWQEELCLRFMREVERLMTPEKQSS
Procedure, shortened: (§1)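 Oleamide hydrolysis by 1-4 nM purified E. coli-expressed FAAH (substrate 50 μM = Km) coupled to GDH/NADH, pH 7.4 phosphate, 7.5% DMSO and EtOH, 30° C; A340 followed 90 min. kobs from mono-exponential fits; kinact/Ki from kobs-versus-concentration slope, multiplied by two.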

rat FAAH = biological target: T2, rat FAAH (Rattus norvegicus, UniProt P97612); assay: FAAH assay, rat FAAH enzyme inactivation (kinact/Ki); type: biochemical; settings: oleamide 50 μM, 30° C.; for kinact/KI: pH 7.4, in vitro, read-out: rFAAH kinact/Ki; for rFAAH kinact/Ki: in vitro, pH 7.4
T2 construct: made in house; host or cells: E. coli
T2 sequence (P97612 1-579): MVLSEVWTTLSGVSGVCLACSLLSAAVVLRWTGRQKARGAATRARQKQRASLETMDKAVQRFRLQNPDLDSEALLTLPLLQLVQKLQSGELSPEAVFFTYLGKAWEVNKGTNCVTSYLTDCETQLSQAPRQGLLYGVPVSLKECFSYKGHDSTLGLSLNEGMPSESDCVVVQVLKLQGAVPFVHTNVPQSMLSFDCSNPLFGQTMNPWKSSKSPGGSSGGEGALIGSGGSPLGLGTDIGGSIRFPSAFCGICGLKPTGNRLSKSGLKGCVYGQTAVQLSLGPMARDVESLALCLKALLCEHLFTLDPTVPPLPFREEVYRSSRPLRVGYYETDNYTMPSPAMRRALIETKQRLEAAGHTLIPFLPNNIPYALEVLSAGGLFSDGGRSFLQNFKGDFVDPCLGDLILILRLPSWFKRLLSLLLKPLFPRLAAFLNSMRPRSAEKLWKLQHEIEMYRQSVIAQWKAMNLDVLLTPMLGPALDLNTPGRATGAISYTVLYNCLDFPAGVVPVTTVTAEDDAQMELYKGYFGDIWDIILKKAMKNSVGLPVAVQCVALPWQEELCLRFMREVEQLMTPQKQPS
Procedure, shortened: as §1

[1] = 3 mpk, oral dosing, PWT four hours postdose

kinact/KI (human FAAH) | kinact/KI (rat FAAH) | hFAAH kinact/Ki (human FAAH) | rFAAH kinact/Ki (rat FAAH) | SMILES | CFA Efficacy (Male Sprague-Dawley Rats; [1]) | CFA Efficacy (Male Sprague-Dawley Rats; 10 mpk, intraperitoneal dosing)
7110 M⁻¹ s⁻¹ | 4560 M⁻¹ s⁻¹ |  |  | Cn1nnnc1NC(=O)N1CCC2(CC1)CC(c1cccc(OC(F)(F)F)c1)CO2 (single isomer, unassigned) [Example 77, N-(1-methyl-1H-tetrazol-5-yl)-3-[3-(trifluoromethoxy)phenyl]-1-oxa-8-azaspiro[4.5]decane-8-carboxamide] | (+) | 
 |  | 7100 M⁻¹ s⁻¹ | 3840 M⁻¹ s⁻¹ | Cn1nnnc1NC(=O)N1CCC2(CC1)CC(c1cccc(OC(F)(F)F)c1)CO2 (single isomer, unassigned) [Example 78, N-(1-methyl-1H-tetrazol-5-yl)-3-[3-(trifluoromethoxy)phenyl]-1-oxa-8-azaspiro[4.5]decane-8-carboxamide] | (+) | 
 |  | 5600 M⁻¹ s⁻¹ | 1970 M⁻¹ s⁻¹ | Cn1nnnc1NC(=O)N1CCC2(CC1)CC(c1cccc(Cl)c1)CO2 (single isomer, unassigned) [Example 79, 3-(3-chlorophenyl)-N-(1-methyl-1H-tetrazol-5-yl)-1-oxa-8-azaspiro[4.5]decane-8-carboxamide] | (+) | 
 |  | 11400 M⁻¹ s⁻¹ | 5520 M⁻¹ s⁻¹ | Cn1nnnc1NC(=O)N1CCC2(CC1)CC(c1cccc(Cl)c1)CO2 (single isomer, unassigned) [Example 80, 3-(3-chlorophenyl)-N-(1-methyl-1H-tetrazol-5-yl)-1-oxa-8-azaspiro[4.5]decane-8-carboxamide] | (+) | 
8420 M⁻¹ s⁻¹ | 1500 M⁻¹ s⁻¹ |  |  | Cn1nnnc1NC(=O)N1CCC2(CC1)CC(c1noc(-c3ccc(OC(F)(F)F)cc3)n1)CO2 (single isomer, unassigned) [Example 84, N-(1-methyl-1H-tetrazol-5-yl)-3-{5-[4-(trifluoromethoxy)phenyl]-1,2,4-oxadiazol-3-yl}-1-oxa-8-azaspiro[4.5]decane-8-carboxamide] | (+) | 
 |  | 5980 M⁻¹ s⁻¹ | 1340 M⁻¹ s⁻¹ | Cn1nnnc1NC(=O)N1CCC2(CC1)CC(c1noc(-c3ccc(OC(F)(F)F)cc3)n1)CO2 (single isomer, unassigned) [Example 85, N-(1-methyl-1H-tetrazol-5-yl)-3-{5-[4-(trifluoromethoxy)phenyl]-1,2,4-oxadiazol-3-yl}-1-oxa-8-azaspiro[4.5]decane-8-carboxamide] | (+) | 
4600 M⁻¹ s⁻¹ | 2160 M⁻¹ s⁻¹ |  |  | Cn1nnnc1NC(=O)N1CCC2(CC1)CC(c1cccc(C(F)(F)F)c1)CO2 (single isomer, unassigned) [Example 93, N-(1-methyl-1H-tetrazol-5-yl)-3-[3-(trifluoromethyl)phenyl]-1-oxa-8-azaspiro[4.5]decane-8-carboxamide] | (+) | 
 |  | 3760 M⁻¹ s⁻¹ | 2110 M⁻¹ s⁻¹ | Cn1nnnc1NC(=O)N1CCC2(CC1)CC(c1cccc(C(F)(F)F)c1)CO2 (single isomer, unassigned) [Example 94, N-(1-methyl-1H-tetrazol-5-yl)-3-[3-(trifluoromethyl)phenyl]-1-oxa-8-azaspiro[4.5]decane-8-carboxamid] | (+) | 

The next lines start with the compound.

SMILES | kinact/KI (human FAAH) | kinact/KI (rat FAAH) | hFAAH kinact/Ki (human FAAH) | rFAAH kinact/Ki (rat FAAH) | CFA Efficacy (Male Sprague-Dawley Rats; [1]) | CFA Efficacy (Male Sprague-Dawley Rats; 10 mpk, intraperitoneal dosing)
Cn1nnnc1NC(=O)N1CCC2(CC1)CC(c1noc(-c3ccc(C(F)(F)F)cc3)n1)CO2 (single isomer, unassigned) [Example 82, N-(1-methyl-1H-tetrazol-5-yl)-3-{5-[4-(trifluoromethyl)phenyl]-1,2,4-oxadiazol-3-yl}-1-oxa-8-azaspiro[4.5]decane-8-carboxamide] | 5110 M⁻¹ s⁻¹ | 1500 M⁻¹ s⁻¹ |  |  | (+) | 
Cn1nnnc1NC(=O)N1CCC2(CC1)CC(c1noc(-c3ccc(C(F)(F)F)cc3)n1)CO2 (single isomer, unassigned) [Example 83, N-(1-methyl-1H-tetrazol-5-yl)-3-{5-[4-(trifluoromethyl)phenyl]-1,2,4-oxadiazol-3-yl}-1-oxa-8-azaspiro[4.5]decane-8-carboxamide] |  |  | 5480 M⁻¹ s⁻¹ | 974 M⁻¹ s⁻¹ | (+) | 
O=C(Nc1cccnn1)N1CCC2(CC1)C[C@@H](c1cccc(Oc3ccc(C(F)(F)F)cn3)c1)CO2 [Example 2, (3S)—N-pyridazin-3-yl-3-(3-{[5-(trifluoromethyl)pyridin-2-yl]oxy}phenyl)-1-oxa-8-azaspiro[4.5]decane-8-carboxamide] | 1340 M⁻¹ s⁻¹ | 1130 M⁻¹ s⁻¹ |  |  |  | (−)^c
O=C(Nc1cccnn1)N1CCC2(CC1)C[C@H](c1cccc(Oc3ccc(C(F)(F)F)cn3)c1)CO2 [Example 3, (3R)—N-pyridazin-3-yl-3-(3-{[5-(trifluoromethyl)pyridin-2-yl]oxy}phenyl)-1-oxa-8-azaspiro[4.5]decane-8-carboxamide] | 3040 M⁻¹ s⁻¹ | 2240 M⁻¹ s⁻¹ |  |  |  | (−)^c
O=C(Nc1cccnc1)N1CCC2(CC1)C[C@H](c1cccc(Oc3ccc(Br)cn3)c1)CO2 [Example 7, (3R)-3-{3-[(5-bromopyridin-2-yl)oxy]phenyl}-N-pyridin-3-yl-1-oxa-8-azaspiro[4.5]decane-8-carboxamide] | 2890 M⁻¹ s⁻¹ | 526 M⁻¹ s⁻¹ |  |  | (+) | 
O=C(Nc1cccnc1)N1CCC2(CC1)C[C@@H](c1cccc(Oc3ccc(Br)cn3)c1)CO2 [Example 8] | 1950 M⁻¹ s⁻¹ | 3520 M⁻¹ s⁻¹ |  |  | (+) | 
O=C(Nc1cccnn1)N1CCC2(CC1)C[C@H](c1cccc(Oc3ccc(Br)cn3)c1)CO2 [Example 9, (3R)-3-{3-[(5-bromopyridin-2-yl)oxy]phenyl}-N-pyridazin-3-yl-1-oxa-8-azaspiro[4.5]decane-8-carboxamide] | 4970 M⁻¹ s⁻¹ | 3340 M⁻¹ s⁻¹ |  |  | (+) | 
O=C(Nc1cccnn1)N1CCC2(CC1)C[C@@H](c1cccc(Oc3ccc(Br)cn3)c1)CO2 [Example 10, (3S)-3-{3-[(5-bromopyridin-2-yl)oxy]phenyl}-N-pyridazin-3-yl-1-oxa-8-azaspiro[4.5]decane-8-carboxamide] | 2690 M⁻¹ s⁻¹ | 5890 M⁻¹ s⁻¹ |  |  | (+) | 
O=C(Nc1cccnn1)N1CCC2(CC1)C[C@H](c1cccc(Oc3ccc(Cl)cn3)c1)CO2 [Example 11, (3R)-3-{3-[(5-chloropyridin-2-yl)oxy]phenyl}-N-pyridazin-3-yl-1-oxa-8-azaspiro[4.5]decane-8-carboxamide] | 2420 M⁻¹ s⁻¹ | 1020 M⁻¹ s⁻¹ |  |  | (+) | 
O=C(Nc1cccnn1)N1CCC2(CC1)C[C@@H](c1cccc(Oc3ccc(Cl)cn3)c1)CO2 [Example 12, (3S)-3-{3-[(5-chloropyridin-2-yl)oxy]phenyl}-N-pyridazin-3-yl-1-oxa-8-azaspiro[4.5]decane-8-carboxamide] | 2190 M⁻¹ s⁻¹ | 2270 M⁻¹ s⁻¹ |  |  | (+) | 

— patent US20110230493A1, “1-OXA-8-Azaspiro [4,5] Decabe-8-Carboxamide Compounds as FAAH Inhibitors” (Pfizer Inc., priority 2008, published 2011)
